Literature values, collected in patent publication US20110034478A1, “Oral Pharmaceutical Compositions in a Solid Dispersion Comprising Preferably Posaconazole and HPMCAs” (Schering-Plough Corporation, priority 2008, published 2011).

Question: Which “solubility in water” value does the source give for `CCC(C)n1ncn(-c2ccc(N3CCN(c4ccc(OC[C@H]5CO[C@](Cn6cncn6)(c6ccc(Cl)cc6Cl)O5)cc4)CC3)cc2)c1=O` (mixture of isomers) [Itraconazole] here?
Answer: practically insoluble

Question: Which “solubility in water” value does the source give for `N#Cc1ccc(C(c2ccc(C#N)cc2)n2cncn2)cc1` [Letrozole] here?
Answer: practically insoluble

Question: With `OC(Cn1cncn1)(Cn1cncn1)c1ccc(F)cc1F` [Fluconazole] as the compound, how does the solubility in water read?
Answer: about 1 ug/ml

Question: Which solubility in water does the source give for `CC(C)N1CCN(c2ccc(OC[C@H]3CO[C@](Cn4cncn4)(c4ccc(Cl)cc4Cl)O3)cc2)CC1` (racemic) [Terconazole] here?
Answer: < 100 µg/mL

Question: For `CCC(C)n1ncn(-c2ccc(N3CCN(c4ccc(OCC5CO[C@](Cn6cncn6)(c6ccc(F)cc6F)O5)cc4)CC3)cc2)c1=O` (stereo partly shown) [Saperconazole], which “solubility in water” value is on record?
Answer: poorly soluble

Question: Which “solubility in water” value does the source give for `CC(C(=O)Nc1cc(-c2ccccc2)nn1-c1ccccc1)N(C)C` (stereo not shown) [Difenamizole] here?
Answer: practically insoluble

Remark: another data set of the same source

Question: For `CCC(C)n1ncn(-c2ccc(N3CCN(c4ccc(OC[C@H]5CO[C@](Cn6cncn6)(c6ccc(Cl)cc6Cl)O5)cc4)CC3)cc2)c1=O` (mixture of isomers) [Itraconazole], which pKa is on record?
Answer: 3.7
